Reference: patent US7868005B2, “Pyrazinyl substituted piperazine-piperidines with CXCR3 antagonist activity” (Schering Corporation, priority 2005, dated 2011)

These molecules were tested against T1, human CXCR3 (N-delta 4) (Homo sapiens, UniProt P49682) (assay: Human CXCR3 (N-delta 4) Scintillation Proximity Assay (SPA), [125I] IP-10 binding to Ba/F3-hCXCR3 membranes). Details: IC50 rating, Table 1; read-out: IC50.
T1 construct: CD8 leader (N); Flag; expressed in transfected cells; membranes prepared
T1 sequence (P49682 5-368 limits assumed): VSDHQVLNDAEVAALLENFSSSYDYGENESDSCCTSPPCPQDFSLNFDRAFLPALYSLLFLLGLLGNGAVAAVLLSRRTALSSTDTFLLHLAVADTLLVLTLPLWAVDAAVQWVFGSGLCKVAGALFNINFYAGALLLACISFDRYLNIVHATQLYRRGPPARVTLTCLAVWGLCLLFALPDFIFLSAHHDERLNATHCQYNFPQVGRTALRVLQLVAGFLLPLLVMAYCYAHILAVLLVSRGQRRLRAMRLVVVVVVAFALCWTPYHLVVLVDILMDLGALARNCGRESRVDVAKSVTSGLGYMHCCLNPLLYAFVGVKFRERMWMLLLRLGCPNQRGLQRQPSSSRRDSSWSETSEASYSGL
Excerpt: The inventive compounds can readily be evaluated to determine activity at the CXCR3 receptors by known methods, such as, for example, development of a human CXCR3 (N-delta 4) Binding Assay.
Cloning and Expression of Human CXCR3 (N-delta 4):
The DNA encoding human CXCR3 was cloned by PCR using human genomic DNA (Promega, Madison, Wis.) as a template. The PCR primers were designed based on the published sequence of human orphan receptor GPR9 (1) with incorporated restriction sites, a Kozak consensus sequence, CD8 leader and Flag tag. The PCR product was subcloned into the mammalian expression vector pME18Sneo, a derivative of the SR-alpha expression vector (designated as pME18Sneo-hCXCR3 (N-delta 4).
IL-3-dependent mouse pro-B cells Ba/F3 were transfected by electroporation in 0.4 ml Dulbecco's PBS containing 4×10^6 cells with 20 μg of pME18Sneo-hCXCR3 (N-delta 4) plasmid DNA. Cells were pulsed at 400 Volts, 100 OHMs, 960 μFd. The transfected cells were under selection with 1 mg/ml G418 (Life Technologies, Gaithersburg, Md.). G418-resistant Ba/F3 clones were screened for CXCR3 expression by specific binding of [^125I] IP-10 (NEN Life Science Products, Boston, Mass.).
Preparation of Ba/F3-hCXCR3 (N-delta 4) Membranes:
Ba/F3 cells expressing human CXCR3 (N-delta 4) were pelleted and resuspended in the lysis buffer containing 10 mM HEPES, pH 7.5 and Complete® protease inhibitors (1 tablet per 100 ml) (Boehringer Mannheim, Indianapolis, Ind.) at a cell density of 20×10^6 cells per ml. After 5 minute incubation on ice, cells were transferred to 4639 cell disruption bomb (Parr Instrument, Moline, Ill.) and applied with 1,500 psi of nitrogen for 30 minutes on ice. Large cellular debris was removed by centrifugation at 1,000×g. Cell membrane in the supernatant was sedimented at 100,000×g. The membrane was resuspended in the lysis buffer supplemented with 10% sucrose and stored at −80° C. Total protein concentration of the membrane was determined by BCA method from Pierce (Rockford, Ill.).
Human CXCR3 (N-delta 4) Scintillation Proximity Assay (SPA):
For each assay point, 2 μg of membrane was preincubated for 1 hr with 300 μg wheat germ agglutinin (WGA) coated SPA beads (Amersham, Arlington Heights, Ill.) in the binding buffer (50 mM HEPES, 1 mM CaCl2, 5 mM MgCl2, 125 mM NaCl, 0.002% NaN3, 1.0% BSA) at room temperature. The beads were spun down, washed once, resuspended in the binding buffer and transferred to a 96-well Isoplate (Wallac, Gaithersburg, Md.). 25 pM of [^125I] IP-10 with tested compounds in a series of titration were added to start the reaction. After 3 hr reaction at room temperature, the amount of [^125I] IP-10 bound to the SPA beads was determined with a Wallac 1450 Microbeta counter.
The Ki ratings for the various compounds of the present invention are given in the afore-mentioned Table 1. From these ratings and value ranges, it would be apparent to the skilled artisan that the compounds of the invention have excellent utility as CXCR3 receptor antagonists.

IC50 [nM] | Compound
> 100 | CC[C@H]1CN(c2nc(N)c(C(N)=O)nc2Cl)CCN1C1CCN(Cc2ccc(Cl)cc2[C@@H](O)C(=O)NC)CC1 [compound 44]
> 100 | CC[C@H]1CN(c2nc(N)c(C(N)=O)nc2Cl)CCN1C1CCN([C@@H](C(=O)NC2CC2)c2ccc(Cl)cc2)CC1 [compound 45]
> 100 | CC[C@H]1CN(c2nc(N)c(C(N)=O)nc2Cl)CCN1C1CCN(Cc2ccc(Cl)cc2CC(=O)NCCNS(C)(=O)=O)CC1 [compound 46]
> 100 | CCNC(=O)NCCc1cc(Cl)ccc1CN1CCC(N2CCN(c3nc(N)c(C(N)=O)nc3Cl)C[C@@H]2CC)CC1 [compound 47]
> 100 | CC[C@H]1CN(c2nc(N)c(C(N)=O)nc2Cl)CCN1C1CCN(Cc2ccc(Cl)cc2CC(=O)N2CC[C@H](O)C2)CC1 [compound 48]
> 100 | CC[C@H]1CN(c2nc(N)c(C(N)=O)nc2Cl)CCN1C1CCN([C@H](CO)c2ccc(Cl)cc2)CC1 [compound 49]
> 100 | CC[C@H]1CN(c2nc(N)c(C(N)=O)nc2Cl)CCN1C1CCN([C@@H](C(=O)NC)c2ccc(Cl)cc2)CC1 [compound 50]
> 100 | CC[C@H]1CN(c2nc(N)c(C(N)=O)nc2Cl)CCN1C1CCN(Cc2ccc(Cl)cc2CC(=O)N2CC[C@@H](O)C2)CC1 [compound 51]
> 100 | CC[C@H]1CN(c2nc(N)c(C(N)=O)nc2Cl)CCN1C1CCN(Cc2ccc(Cl)cc2CCn2ccnc2)CC1 [compound 52]
> 100 | CCOC(=O)C1CCC(Oc2ccc(CN3CCC(N4CCN(c5nc(N)c(C(N)=O)nc5Cl)C[C@@H]4CC)CC3)cc2)CC1 (stereo partly shown) [compound 53]
> 100 | CC[C@H]1CN(c2nc(N)c(C(N)=O)nc2Cl)CCN1C1CCN(Cc2ccc(-n3cncn3)cc2)CC1 [compound 54]
> 100 | CC[C@H]1CN(c2nc(N)c(C(N)=O)nc2Cl)CCN1C1CCN(Cc2ccc(Cl)cc2CC(=O)N2CCOCC2)CC1 [compound 55]
> 100 | CC[C@H]1CN(c2nc(N)c(C(N)=O)nc2Cl)CCN1C1CCN([C@@H](C(=O)OC)c2ccc(Cl)cc2)CC1 [compound 56]
> 100 | CC[C@H]1CN(c2nc(N)c(C(N)=O)nc2Cl)CCN1C1CCN([C@@H](C(N)=O)c2ccc(Cl)cc2)CC1 [compound 57]
> 100 | CC[C@H]1CN(c2nc(N)c(C(N)=O)nc2Cl)CCN1C1CCN(C(CNS(C)(=O)=O)c2ccc(Cl)cc2)CC1 (stereo partly shown) [compound 58]
> 100 | CC[C@H]1CN(c2nc(N)c(C(N)=O)nc2Cl)CCN1C1CCN(Cc2ccc(C(=O)NC)cc2)CC1 [compound 59]
> 100 | CC[C@H]1CN(c2nc(N)c(C(N)=O)nc2Cl)CCN1C1CCN(Cc2ccc(F)c(F)c2N2CCC[C@H]2C(C)(C)O)CC1 [compound 60]
< 25 | CC[C@H]1CN(c2nc(N)c(C(=O)NC)nc2Cl)CCN1C1CCN(Cc2ccc(Cl)cc2)CC1 [compound 61]
< 25 | CC[C@H]1CN(c2nc(N)c(C(=O)NC)nc2Cl)CCN1C1CCN([C@@H](CO)c2ccc(Cl)cc2)CC1 [compound 62]
< 25 | CC[C@H]1CN(c2nc(N)c(C(=O)NC)nc2Cl)CCN1C1CCN(C(CO)c2ccc(Cl)cc2)CC1 (stereo partly shown) [compound 63]
< 25 | CC[C@H]1CN(c2nc(N)c(C(=O)NC)nc2Cl)CCN1C1CCN(Cc2ccc(C#N)cc2)CC1 [compound 64]
< 25 | CNC(=O)c1nc(Cl)c(N2CCN(C3CCN(Cc4ccc(Cl)cc4)CC3)[C@@H](C)C2)nc1N [compound 65]
< 25 | CC[C@H]1CN(c2nc(N)c(C(=O)NC)nc2Cl)CCN1C1CCN(Cc2ccc(-n3cccn3)cc2)CC1 [compound 66]
< 25 | CC[C@H]1CN(c2nc(N)c(C(=O)OC)nc2Cl)CCN1C1CCN(Cc2ccc(Cl)cc2)CC1 [compound 67]
< 25 | CNC(=O)c1nc(Cl)c(N2C[C@H](C)N(C3CCN(Cc4ccc(Cl)cc4F)CC3)C[C@H]2C)nc1N [compound 68]

IC50 [nM] | Compound
< 25 | CC[C@H]1CN(c2nc(N)c(C(=O)NC)nc2Cl)CCN1C1CCN([C@@H](C(=O)OC)c2ccc(Cl)cc2)CC1 [compound 69]
< 25 | CC[C@H]1CN(c2nc(N)c(C(=O)NC)nc2Cl)CCN1C1CCN([C@@H](C(=O)O)c2ccc(Cl)cc2)CC1 [compound 70]
25 to 100 | CC[C@H]1CN(c2nc(N)c(C(=O)NC)nc2Cl)CCN1C1CCN([C@@H](C(=O)NC)c2ccc(Cl)cc2)CC1 [compound 71]
25 to 100 | CC[C@H]1CN(c2nc(N)c(C(=O)NC)nc2Cl)CCN1C1CCN(CCCCc2ccc(Cl)cc2)CC1 [compound 72]
25 to 100 | CC[C@H]1CN(c2nc(N)c(C(=O)NC)nc2Cl)CCN1C1CCN(CCCC(=O)c2ccc(Cl)cc2)CC1 [compound 73]
25 to 100 | CC[C@H]1CN(c2nc(N)c(C(=O)NC)nc2Cl)CCN1C1CCN([C@H](CO)c2ccc(Cl)cc2)CC1 [compound 74]
25 to 100 | CC[C@H]1CN(c2nc(N)c(C(=O)NC)nc2Cl)CCN1C1CCN(Cc2ccc(-n3cncn3)cc2)CC1 [compound 75]
> 100 | CC[C@H]1CN(c2nc(N)c(C(=O)NC)nc2Cl)CCN1C1CCN([C@@H](C(N)=O)c2ccc(Cl)cc2)CC1 [compound 76]
> 100 | CC[C@H]1CN(c2nc(N)c(C(=O)NC)nc2Cl)CCN1C1CCN([C@H](C(=O)OC)c2ccc(Cl)cc2)CC1 [compound 77]
> 100 | CC[C@H]1CN(c2nc(N)c(C(=O)NC)nc2Cl)CCN1C1CCN(CCCOc2ccc(F)cc2)CC1 [compound 78]
> 100 | CC[C@H]1CN(c2nc(N)c(C(=O)NC)nc2Cl)CCN1C1CCN(CCCNC(=O)c2ccc(Cl)cc2)CC1 [compound 79]
> 100 | CC[C@H]1CN(c2nc(N)c(C(=O)NC)nc2Cl)CCN1C1(C)CCN(Cc2ccc(Cl)cc2)CC1 [compound 80]
> 100 | CC[C@H]1CN(c2nc(N)c(C(=O)NC)nc2Cl)CCN1C1(C)CCN(Cc2ccc(Cl)cc2C(=O)NC)CC1 [compound 81]
< 25 | CC[C@H]1CN(c2nc(N)c(C(=O)NC3CC3)nc2Cl)CCN1C1CCN(Cc2ccc(Cl)cc2C(N)=O)CC1 [compound 82]
< 25 | CC[C@H]1CN(c2nc(N)c(C(=O)NC3CC3)nc2Cl)CCN1C1CCN(Cc2ccc(Cl)cc2F)CC1 [compound 83]
< 25 | CC[C@H]1CN(c2nc(N)c(C(=O)NC3CC3)nc2Cl)CCN1C1CCN(Cc2ccc(Cl)cc2O)CC1 [compound 84]
< 25 | CC[C@H]1CN(c2nc(N)c(C(=O)NC3CC3)nc2Cl)CCN1C1CCN(Cc2ccc(Cl)cc2OCCO)CC1 [compound 85]
< 25 | CC[C@H]1CN(c2nc(N)c(C(=O)NC3CC3)nc2Cl)CCN1C1CCN(Cc2ccc(C#N)cc2OCCO)CC1 [compound 86]
< 25 | CC[C@H]1CN(c2nc(N)c(C(=O)NC3CC3)nc2Cl)CCN1C1CCN(Cc2ccc(Cl)cc2CN)CC1 [compound 87]
< 25 | CC[C@H]1CN(c2nc(N)c(C(=O)NC3CC3)nc2Cl)CCN1C1CCN(Cc2ccc(Cl)cc2C#N)CC1 [compound 88]
< 25 | CC[C@H]1CN(c2nc(N)c(C(=O)NC3CC3)nc2Cl)CCN1C1CCN(Cc2ccc(C#N)cc2OCCOC)CC1 [compound 89]
< 25 | CC[C@H]1CN(c2nc(N)c(C(=O)NC3CC3)nc2Cl)CCN1C1CCN(Cc2ccc(Cl)cc2C(=O)OC)CC1 [compound 90]
< 25 | CCC1CN(c2nc(N)c(C(=O)NC3CC3)nc2Cl)CCN1C1CCN(C(CCN)c2ccc(Cl)cc2)CC1 (stereo not shown) [compound 91]
< 25 | CC[C@H]1CN(c2nc(N)c(C(=O)NC3CC3)nc2Cl)CCN1C1CCN(Cc2ccc(C#N)cc2OCC(=O)NC2CC2)CC1 [compound 92]
